According to the supplement of paper PMC13380429:

What was measured:
Settings in all cases: 72 h
[1] = test system: Calu-3; experiment: drug sensitivity score (DSS) for viability; higher = more toxic; extreme values may be limits of the assay
[2] = test system: Vero E6; experiment: as above
[3] = test system: Caco-2; experiment: as above
[4] = test system: U2OS; experiment: as above
[5] = test system: Calu-3; experiment: cell viability relative to DMSO; higher = less toxic
[6] = test system: Vero E6; experiment: as above
[7] = test system: Caco-2; experiment: as above
[8] = test system: U2OS; experiment: as above
[9] = test system: Calu-3; experiment: relative viability EC50 (midpoint between 100% and the lowest measured viability); higher = less toxic
[10] = test system: Vero E6; experiment: as above
[11] = test system: Caco-2; experiment: as above
[12] = test system: U2OS; experiment: as above
[13] = test system: HepG2; experiment: drug sensitivity score (DSS) for viability; higher = more toxic; extreme values may be limits of the assay
[14] = test system: HepG2; experiment: cell viability relative to DMSO; higher = less toxic
[15] = test system: HepG2; experiment: relative viability EC50 (midpoint between 100% and the lowest measured viability); higher = less toxic

Row | SMILES | drug sensitivity score [1] | drug sensitivity score [2] | drug sensitivity score [3] | drug sensitivity score [4] | cell viability ([5]; 1 nM) | cell viability ([5]; 10 nM) | cell viability ([5]; 100 nM) | cell viability ([5]; 1000 nM) | cell viability ([5]; 10000 nM) | cell viability ([6]; 1 nM) | cell viability ([6]; 10 nM) | cell viability ([6]; 100 nM) | cell viability ([6]; 1000 nM) | cell viability ([6]; 10000 nM) | cell viability ([7]; 1 nM) | cell viability ([7]; 10 nM) | cell viability ([7]; 100 nM) | cell viability ([7]; 1000 nM) | cell viability ([7]; 10000 nM) | cell viability ([8]; 1 nM) | cell viability ([8]; 10 nM) | cell viability ([8]; 100 nM) | cell viability ([8]; 1000 nM) | cell viability ([8]; 10000 nM) | relative viability EC50 [9] | relative viability EC50 [10] | relative viability EC50 [11] | relative viability EC50 [12] | drug sensitivity score [13] | cell viability ([14]; 1 nM) | cell viability ([14]; 10 nM) | cell viability ([14]; 100 nM) | cell viability ([14]; 1000 nM) | cell viability ([14]; 10000 nM) | relative viability EC50 [15]
1 | CCC1=C[C@@H]2CN3CCc4c([nH]c5ccccc45)[C@@](C(=O)OC)(C2)[C@@H]13 [catharanthine] | 0 | 0 | 0 | 0 | 98.5% | 107% | 98.4% | 90.9% | 101% | 103% | 93.4% | 98.4% | 101% | 110% | 93.7% | 92.6% | 95.9% | 103% | 91.9% | 92.3% | 100% | 95.7% | 97.1% | 98.4% | > 10 µM | > 10 µM | > 10 µM | > 10 µM |  |  |  |  |  |  | 
2 | CCC(=O)O[C@]1(C(=O)CCl)[C@@H](C)C[C@H]2[C@@H]3CCC4=CC(=O)C=C[C@]4(C)[C@@]3(F)[C@@H](O)C[C@@]21C [clobetasol-propionate] | 0 | 0 |  | 0 | 91.5% | 96% | 82.2% | 94% | 89.7% | 99.6% | 96.5% | 107% | 93.4% | 95.2% |  |  |  |  |  | 95.7% | 95.7% | 93.1% | 90.7% | 91.2% | > 10 µM | > 10 µM |  | > 10 µM | 0.8 | 107% | 105% | 94.5% | 99.4% | 77.8% | > 10 µM
3 | C[C@]12CC[C@H](O)CC1=CC[C@@H]1[C@@H]2CC[C@]2(C)C(n3cnc4ccccc43)=CC[C@@H]12 [galeterone] | 0 | 1.1 | 4.6 | 0 | 91.9% | 95% | 85.5% | 99.6% | 90.2% | 100% | 99% | 102% | 99.2% | 74.5% | 95.6% | 102% | 89.1% | 88.3% | 45.9% | 96.4% | 102% | 93.4% | 95.1% | 92.9% | > 10 µM |  | 1.72 µM | > 10 µM | 0.9 | 97.8% | 102% | 97.5% | 99.3% | 77.4% | > 10 µM
4 | CC(C)(CO)CCCCCCC(C)(C)CO [gemcadiol] | 0 | 0 | 0 | 0 | 97.4% | 93.5% | 100% | 94.3% | 105% | 93.8% | 102% | 102% | 103% | 108% | 89.7% | 129% | 113% | 128% | 92.2% | 97% | 94.5% | 103% | 96.8% | 98.7% | > 10 µM | > 10 µM | > 10 µM | > 10 µM |  |  |  |  |  |  | 
5 | N[C@@H](CCC(=O)N[C@@H](CS)C(=O)NCC(=O)O)C(=O)O [glutathione] | 0 |  | 0 | 0 | 98.1% | 93.2% | 98.8% | 101% | 99.7% |  |  |  |  |  | 92.7% | 90.7% | 105% | 93.6% | 99.4% | 95.3% | 97.3% | 99.5% | 96.6% | 102% | > 10 µM |  | > 10 µM | > 10 µM | 0 | 108% | 106% | 97.3% | 99.3% | 104% | > 10 µM
6 | Clc1ccc(C(Cn2ccnc2)OCc2c(Cl)cccc2Cl)c(Cl)c1 (configuration not stated) [isoconazole] | 0.4 | 0 | 1.2 | 0 | 95.8% | 97.9% | 105% | 98.5% | 84.2% | 102% | 101% | 97.7% | 95.7% | 101% | 97% | 96.4% | 96.8% | 100% | 71.7% | 104% | 103% | 122% | 110% | 92% | > 10 µM | > 10 µM |  | > 10 µM |  |  |  |  |  |  | 
7 | CO/N=C1\C[C@]2(C[C@@H]3C[C@@H](C/C=C(\C)C[C@@H](C)/C=C/C=C4\CO[C@@H]5[C@H](O)C(C)=C[C@@H](C(=O)O3)[C@]45O)O2)O[C@H](/C(C)=C/C(C)C)[C@H]1C [moxidectin] | 0 | 0 | 3.6 | 0 | 90.7% | 97.3% | 94.2% | 103% | 89.8% | 96.4% | 96.9% | 88.7% | 96.4% | 101% | 95.3% | 94% | 102% | 88.2% | 62.1% | 103% | 92.1% | 93.5% | 94.6% | 94.7% | > 10 µM | > 10 µM |  | > 10 µM | 0 | 101% | 106% | 102% | 105% | 96.7% | > 10 µM
